Like-named read-outs stand apart in the source and are kept apart here.
Columns and labels:
Test in all cases: Test C pre-/postemergence greenhouse test, plant response rating 0-100;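 on Plant response rating (0 to 100), Blackgrass: 0 is no effect and 100 is complete control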;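 on Plant response rating (0 to 100), Ragweed: 0 is no effect and 100 is complete control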;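 on Plant response rating, Blackgrass: 0 is no effect and 100 is complete control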;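 on Plant response rating, Ragweed: 0 is no effect and 100 is complete control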
Format in all cases: in vivo
[1] = system: ragweed (common ragweed, Ambrosia elatior); conditions: Ambrosia artemisiifolia; for pest or weed control at 62 g/ha: 62 g ai/ha; for pest or weed control at 125 g/ha: 125 g ai/ha; for pest or weed control at 250 g/ha: 250 g ai/ha; for pest or weed control at 500 g/ha: 500 g ai/ha;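 on all read-outs here: 0 is no effect and 100 is complete control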
Summary of the method: (§1)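 After treatment, pots stay in the greenhouse 13–15 days before each species is compared with untreated controls and given a 0–100 visual score. Preemergence seeds are in loam blended with sand; postemergence plants, 1–4 leaves, are in peat-based medium.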

[2] = system: galium (catchweed bedstraw, Galium aparine); conditions: Galium; for pest or weed control at 62 g/ha: 62 g ai/ha; for pest or weed control at 125 g/ha: 125 g ai/ha; for pest or weed control at 250 g/ha: 250 g ai/ha; for pest or weed control at 500 g/ha: 500 g ai/ha
Summary of the method: as §1

corn (Zea mays) = conditions: Zea mays; for Corn plant response rating (crop injury, 0 = no effect, 100 = complete kill) at 250 g/ha: 250 g ai/ha; for Corn plant response rating (crop injury, 0 = no effect, 100 = complete kill) at 500 g/ha: 500 g ai/ha
Summary of the method: as §1

[3] = system: winter wheat (Triticum aestivum); conditions: Triticum aestivum; for plant injury at 62 g/ha: 62 g ai/ha; for plant injury at 125 g/ha: 125 g ai/ha; for plant injury at 250 g/ha: 250 g ai/ha; for plant injury at 500 g/ha: 500 g ai/ha
Summary of the method: as §1

[4] = system: large (Lg) crabgrass (Digitaria sanguinalis); conditions: Digitaria sanguinalis; for pest or weed control at 62 g/ha: 62 g ai/ha; for pest or weed control at 125 g/ha: 125 g ai/ha; for pest or weed control at 250 g/ha: 250 g ai/ha; for pest or weed control at 500 g/ha: 500 g ai/ha
Summary of the method: as §1

[5] = system: johnsongrass (Sorghum halepense); conditions: Sorghum halepense; for pest or weed control at 62 g/ha: 62 g ai/ha; for pest or weed control at 125 g/ha: 125 g ai/ha; for pest or weed control at 250 g/ha: 250 g ai/ha; for pest or weed control at 500 g/ha: 500 g ai/ha
Summary of the method: as §1

[6] = system: yellow nutsedge (Cyperus esculentus); conditions: Cyperus; for pest or weed control at 62 g/ha: 62 g ai/ha; for pest or weed control at 125 g/ha: 125 g ai/ha; for pest or weed control at 250 g/ha: 250 g ai/ha; for pest or weed control at 500 g/ha: 500 g ai/ha
Summary of the method: as §1

[7] = system: morningglory (Ipomoea coccinea); conditions: Ipomoea; for pest or weed control at 62 g/ha: 62 g ai/ha; for pest or weed control at 125 g/ha: 125 g ai/ha; for pest or weed control at 250 g/ha: 250 g ai/ha; for pest or weed control at 500 g/ha: 500 g ai/ha
Summary of the method: as §1

[8] = system: velvetleaf (Abutilon theophrasti); conditions: Abutilon theophrasti; for pest or weed control at 62 g/ha: 62 g ai/ha; for pest or weed control at 125 g/ha: 125 g ai/ha; for pest or weed control at 250 g/ha: 250 g ai/ha; for pest or weed control at 500 g/ha: 500 g ai/ha
Summary of the method: as §1

[9] = system: blackgrass (Alopecurus myosuroides); conditions: Alopecurus myosuroides; for pest or weed control at 62 g/ha: 62 g ai/ha; for pest or weed control at 125 g/ha: 125 g ai/ha; for pest or weed control at 250 g/ha: 250 g ai/ha; for pest or weed control at 500 g/ha: 500 g ai/ha;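 on all read-outs here: 0 is no effect and 100 is complete control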
Summary of the method: as §1

[10] = system: lambsquarters (Chenopodium album); conditions: Chenopodium album; for pest or weed control at 62 g/ha: 62 g ai/ha; for pest or weed control at 125 g/ha: 125 g ai/ha; for pest or weed control at 250 g/ha: 250 g ai/ha; for pest or weed control at 500 g/ha: 500 g ai/ha
Summary of the method: as §1

[11] = system: pigweed (Amaranthus retroflexus); conditions: Amaranthus retroflexus; for pest or weed control at 62 g/ha: 62 g ai/ha; for pest or weed control at 125 g/ha: 125 g ai/ha; for pest or weed control at 250 g/ha: 250 g ai/ha; for pest or weed control at 500 g/ha: 500 g ai/ha
Summary of the method: as §1

[12] = post-emergence, Postemergence, read-out: Plant response rating (0 to 100), Ragweed
[13] = post-emergence, Postemergence, scale 0 to 100
[14] = pre-emergence, Preemergence, read-out: Plant response rating, Ragweed
[15] = post-emergence, Postemergence, read-out: Plant response rating (0 to 100), Galium
[16] = pre-emergence, Preemergence, read-out: Plant response rating, Galium
[17] = post-emergence, Postemergence, read-out: Plant response rating (0 to 100), Wheat
[18] = pre-emergence, Preemergence, read-out: Plant response rating, Wheat
[19] = post-emergence, Postemergence, read-out: Plant response rating (0 to 100), Crabgrass, Large
[20] = pre-emergence, Preemergence, read-out: Plant response rating, Crabgrass, Large
[21] = post-emergence, Postemergence, read-out: Plant response rating (0 to 100), Johnsongrass
[22] = pre-emergence, Preemergence, read-out: Plant response rating, Johnsongrass
[23] = post-emergence, Postemergence, read-out: Plant response rating (0 to 100), Nutsedge, Yellow
[24] = pre-emergence, Preemergence, read-out: Plant response rating, Nutsedge, Yellow
[25] = post-emergence, Postemergence, read-out: Plant response rating (0 to 100), Morningglory
[26] = pre-emergence, Preemergence, read-out: Plant response rating, Morningglory
[27] = post-emergence, Postemergence, read-out: Plant response rating (0 to 100), Velvetleaf
[28] = pre-emergence, Preemergence, read-out: Plant response rating, Velvetleaf
[29] = pre-emergence, Preemergence, read-out: Plant response rating, Blackgrass
[30] = post-emergence, Postemergence, read-out: Plant response rating (0 to 100), Lambsquarters
[31] = pre-emergence, Preemergence, read-out: Plant response rating, Lambsquarters
[32] = post-emergence, Postemergence, read-out: Plant response rating (0 to 100), Pigweed
[33] = pre-emergence, Preemergence, read-out: Plant response rating, Pigweed

COCC(=O)n1cc(C(=O)c2ccccc2)c(-c2cc(Cl)cc(Cl)c2)n1 [Compound 16, 1-[4-benzoyl-3-(3,5-dichlorophenyl)-1H-pyrazol-1-yl]-2-methoxyethanone]
pest or weed control at 62 g/ha [1, 12]: 60%
pest or weed control at 125 g/ha [1, 12]: 85%
pest or weed control at 250 g/ha [1, 13]: 85%
pest or weed control at 500 g/ha [1, 13]: 95%
pest or weed control at 62 g/ha [1, 14]: 55%
pest or weed control at 125 g/ha [1, 14]: 85%
pest or weed control at 250 g/ha ([1]; pre-emergence, Preemergence): 85%
pest or weed control at 500 g/ha ([1]; pre-emergence, Preemergence): 95%
pest or weed control at 62 g/ha [2, 15]: 0%
pest or weed control at 125 g/ha [2, 15]: 20%
pest or weed control at 250 g/ha [2, 13]: 20%
pest or weed control at 500 g/ha [2, 13]: 50%
pest or weed control at 62 g/ha [2, 16]: 0%
pest or weed control at 125 g/ha [2, 16]: 0%
pest or weed control at 250 g/ha ([2]; pre-emergence, Preemergence): 0%
pest or weed control at 500 g/ha ([2]; pre-emergence, Preemergence): 0%
plant injury at 62 g/ha (corn (Zea mays); post-emergence, Postemergence, 62 g ai/ha): 0%
plant injury at 125 g/ha (corn (Zea mays); post-emergence, Postemergence, 125 g ai/ha): 0%
Corn plant response rating (crop injury, 0 = no effect, 100 = complete kill) at 250 g/ha (corn (Zea mays); [13]): 0%
Corn plant response rating (crop injury, 0 = no effect, 100 = complete kill) at 500 g/ha (corn (Zea mays); [13]): 0%
Corn plant response rating (crop injury, 0 = no effect, 100 = complete kill) at 62 g/ha (corn (Zea mays); pre-emergence, Preemergence, 62 g ai/ha): 0%
Corn plant response rating (crop injury, 0 = no effect, 100 = complete kill) at 125 g/ha (corn (Zea mays); pre-emergence, Preemergence, 125 g ai/ha): 0%
Corn plant response rating (crop injury, 0 = no effect, 100 = complete kill) at 250 g/ha (corn (Zea mays); pre-emergence, Preemergence): 0%
Corn plant response rating (crop injury, 0 = no effect, 100 = complete kill) at 500 g/ha (corn (Zea mays); pre-emergence, Preemergence): 0%
plant injury at 62 g/ha [3, 17]: 0%
plant injury at 125 g/ha [3, 17]: 0%
plant injury at 250 g/ha [3, 13]: 0%
plant injury at 500 g/ha [3, 13]: 0%
plant injury at 62 g/ha [3, 18]: 0%
plant injury at 125 g/ha [3, 18]: 0%
plant injury at 250 g/ha ([3]; pre-emergence, Preemergence): 0%
plant injury at 500 g/ha ([3]; pre-emergence, Preemergence): 0%
pest or weed control at 62 g/ha [4, 19]: 0%
pest or weed control at 125 g/ha [4, 19]: 0%
pest or weed control at 250 g/ha [4, 13]: 0%
pest or weed control at 500 g/ha [4, 13]: 0%
pest or weed control at 62 g/ha [4, 20]: 0%
pest or weed control at 125 g/ha [4, 20]: 0%
pest or weed control at 250 g/ha ([4]; pre-emergence, Preemergence): 0%
pest or weed control at 500 g/ha ([4]; pre-emergence, Preemergence): 0%
pest or weed control at 62 g/ha [5, 21]: 0%
pest or weed control at 125 g/ha [5, 21]: 0%
pest or weed control at 250 g/ha [5, 13]: 0%
pest or weed control at 500 g/ha [5, 13]: 0%
pest or weed control at 62 g/ha [5, 22]: 0%
pest or weed control at 125 g/ha [5, 22]: 0%
pest or weed control at 250 g/ha ([5]; pre-emergence, Preemergence): 0%
pest or weed control at 500 g/ha ([5]; pre-emergence, Preemergence): 0%
pest or weed control at 62 g/ha [6, 23]: 0%
pest or weed control at 125 g/ha [6, 23]: 0%
pest or weed control at 250 g/ha [6, 13]: 0%
pest or weed control at 500 g/ha [6, 13]: 5%
pest or weed control at 62 g/ha [6, 24]: 0%
pest or weed control at 125 g/ha [6, 24]: 0%
pest or weed control at 250 g/ha ([6]; pre-emergence, Preemergence): 0%
pest or weed control at 500 g/ha ([6]; pre-emergence, Preemergence): 0%
pest or weed control at 62 g/ha [7, 25]: 0%
pest or weed control at 125 g/ha [7, 25]: 0%
pest or weed control at 250 g/ha [7, 13]: 0%
pest or weed control at 500 g/ha [7, 13]: 0%
pest or weed control at 62 g/ha [7, 26]: 0%
pest or weed control at 125 g/ha [7, 26]: 0%
pest or weed control at 250 g/ha ([7]; pre-emergence, Preemergence): 0%
pest or weed control at 500 g/ha ([7]; pre-emergence, Preemergence): 0%
pest or weed control at 62 g/ha [8, 27]: 85%
pest or weed control at 125 g/ha [8, 27]: 90%
pest or weed control at 250 g/ha [8, 13]: 90%
pest or weed control at 500 g/ha [8, 13]: 90%
pest or weed control at 62 g/ha [8, 28]: 65%
pest or weed control at 125 g/ha [8, 28]: 100%
pest or weed control at 250 g/ha ([8]; pre-emergence, Preemergence): 100%
pest or weed control at 500 g/ha ([8]; pre-emergence, Preemergence): 100%
pest or weed control at 62 g/ha ([9]; post-emergence, Postemergence, read-out: Plant response rating (0 to 100), Blackgrass): 0%
pest or weed control at 125 g/ha ([9]; post-emergence, Postemergence, scale 0 to 100, read-out: Plant response rating, Blackgrass): 0%
pest or weed control at 250 g/ha [9, 13]: 0%
pest or weed control at 500 g/ha [9, 13]: 0%
pest or weed control at 62 g/ha [9, 29]: 0%
pest or weed control at 125 g/ha [9, 29]: 0%
pest or weed control at 250 g/ha ([9]; pre-emergence, Preemergence): 0%
pest or weed control at 500 g/ha ([9]; pre-emergence, Preemergence): 0%
pest or weed control at 62 g/ha [10, 30]: 70%
pest or weed control at 125 g/ha [10, 30]: 75%
pest or weed control at 250 g/ha [10, 13]: 75%
pest or weed control at 500 g/ha [10, 13]: 75%
pest or weed control at 62 g/ha [10, 31]: 100%
pest or weed control at 125 g/ha [10, 31]: 100%
pest or weed control at 250 g/ha ([10]; pre-emergence, Preemergence): 100%
pest or weed control at 500 g/ha ([10]; pre-emergence, Preemergence): 100%
pest or weed control at 62 g/ha [11, 32]: 85%
pest or weed control at 125 g/ha [11, 32]: 85%
pest or weed control at 250 g/ha [11, 13]: 100%
pest or weed control at 500 g/ha [11, 13]: 100%
pest or weed control at 62 g/ha [11, 33]: 85%
pest or weed control at 125 g/ha [11, 33]: 85%
pest or weed control at 250 g/ha ([11]; pre-emergence, Preemergence): 100%
pest or weed control at 500 g/ha ([11]; pre-emergence, Preemergence): 100%

Reference: patent US10167262B2, “Herbicidal substituted 3-arylpyrazoles” (FMC CORPORATION, priority 2014, dated 2019)
